Experimental data: US20180272042A1, “DRUG-POLYMER FILM FOR CONTROLLED LOCAL DELIVERY AT TISSUE-DEVICE INTERFACE” (Brown University, priority 2017, published 2018)

Test system: oxidative stress
Assay: oxidative stress in vitro model
Type: cell-based
Settings: pterostilbene compared with resveratrol

Compound: Oc1ccc(C=Cc2cc(O)cc(O)c2)cc1 [resveratrol]
- treatment of oxidative stress: comparable
